Earlier results in patent publication US5091169A, “Dipyridoxyl phosphate NMRI contrast agent compositions” (priority 1989, dated 1992).

Settings: cited from earlier work

Row | SMILES | stability of manganese(II) complex (above pH 5, Frost et al) | log Kf (formation constant) (manganese chelate, reported by L'Eplathenier et al)
1 | O=C([O-])C(NCCNC(C(=O)[O-])c1ccccc1O)c1ccccc1O.[Mn+2] (centres unmarked) [Mn(II) chelates of EHPG] | irreversibly oxidized | 
2 | O=C([O-])CN(CCN(CC(=O)[O-])Cc1ccccc1O)Cc1ccccc1O.[Mn+2] [manganese chelate of N,N'-bis(2-hydroxybenzyl)ethylenediamine-N,N'-diacetic acid] |  | 14.8
